Paper PMC5016780, “Development of a Cell-penetrating Peptide that Exhibits Responsive Changes in its Secondary Structure in the Cellular Environment” (Scientific Reports, 2016)
“Also recorded” adds a separate entry of the source. Non-standard residues stand in square brackets, D forms with d. Residues, ends and D or L forms follow the SMILES beside them. *: point of attachment. 5FAM = O=C1OC2(c3ccc(O)cc3Oc3cc(O)ccc32)c2ccc(C(=O)*)cc21; Pro(cis-4-guanidino) = NC(N)=N[C@@H]1CN[C@H](C(=O)O)C1; Pro(4S-NH2) = N[C@@H]1CN[C@H](C(=O)O)C1; βAla = NCCC(=O)O

How the values were obtained:
[1] = Peptide stability in culture medium containing 10% FBS (pre-incubation uptake and LC-MS); type: in vitro ADME; conditions: 0–24 h at 37 °C, then 2 hr with HeLa cells at 37 °C (1 μM, flow cytometry), and LC-MS analysis, 1–24 hr in culture medium containing 10% FBS
Protocol: Figure S8. (a) Cellular uptake of the peptides 1-5 after 1-24 h pre-incubation (peptide concentration: 1 µM). Values are the means ± standard deviation of three independent Figure 5b. Cellular uptake of the peptides 1-5 LC-MS analsisys. the stability of the peptides (1-24 hr) after 1-24 hr pre-incubation. in culture media containing 10% FBS using LC-MS. cultures. (b) The peptides’ stability (1-24 hr) analysis in culture medium containing FBS using LCCytotoxicity-MS. […]

HeLa cells [2] = experiment: Time course of cellular uptake (1–24 hr); type: cell-based; conditions: 37 °C, 1 μM peptide; for stability in culture medium / cellular environment, as concluded from the uptake time course: culture medium containing fetal bovine serum (FBS)
Protocol: The results of the cytotoxicity analysis, in which HeLa cells were treated with peptides 1–5 for 24 hr at concentrations of 1, 4, and 8 μM, are shown in Fig. S9. […] Next, we investigated the intracellular uptake pathways of R9 and peptide 3. In the presence of various endocytosis inhibitors (amiloride, a macropinocytosis inhibitor[37]; nystatin, a caveolae-mediated endocytosis inhibitor[38]; and sucrose, a clathrin-mediated endocytosis inhibitor[39]), the migration levels of R9 and 3 into the HeLa cells were compared (Fig. S10). […] Then, we investigated the intracellular localization and dynamic behavior of R9 and 3 using fluorescence microscopy. The cells’ late endosomes/lysosomes were stained with LysoTracker Red (red), and their nuclei were stained with Hoechst 33342 (blue). […] As a general approach, peptides that can change their helical structures in accordance with pH fluctuations are often used to promote escape from endosomes. […] We considered that peptide 3 might also directly penetrate the cell membrane more efficiently than R9 (R9 passes through the cell membrane via not only endocytosis but also non-endocytosis pathway, that is, direct permeation to the cell membrane)[44]. Therefore, we investigated the intracellular uptake of peptide 3 at low temperature using flow cytometry and fluorescence microscopy. At low temperature, energy-dependent pathways such as endocytosis are inhibited so it is possible to assess direct peptide penetration via energy-independent pathways. […] Peptides that can directly penetrate through the cell membrane can be used for efficient intracellular delivery as they are not affected by problems associated with the need to escape from endosomes.
Figure 5 (a) Cellular uptake of the peptides 1–5 and R9 after 1–24 hr (peptide concentration: 1 μM). Values are the means ± standard deviation of three independent cultures. (b,c) Peptide 3 and R9 were colocalized with lysosome marker. HeLa cells were treated with 10 μM peptides at 37 °C for 2 hr. The acidic late endosomes/lysosomes were stained with LysoTracker Red (red), and the nuclei were stained with Hoechst 33342 (blue). The scale bars represent 50 μm.
HeLa, A549, Jurkat and CHO-K1 cells were seeded in 6-well dishes at a density of 4.0 × 10^6 cells/well and cultured in DMEM (HeLa, A549), RPMI-1640 (Jurkat) and Ham’s F-12 (CHO-K1) for 24 hr, respectively. The cells were treated with each peptide (peptide concentration; 1 μM) and incubated for each time (1, 2, 4, 8, 16 and 24 hr). Then, the cells were washed three times with phosphate buffer (PBS) supplemented with heparin (20 units/mL) and detached by treatment of trypsin-EDTA. […] Then, the collected cells were suspended in 500 μL of PBS buffer and mean fluorescence intensity in cells was measured by flow cytometer. […]

HeLa cells [3] = experiment: Uptake in the presence of endocytosis inhibitors; type: cell-based; conditions: amiloride 25 μM, sucrose 0.4 M or nystatin 25 μg/mL, 1 μM peptide, 1 hr, flow cytometry
Protocol: The results of the cytotoxicity analysis, in which HeLa cells were treated with peptides 1–5 for 24 hr at concentrations of 1, 4, and 8 μM, are shown in Fig. S9. […] Next, we investigated the intracellular uptake pathways of R9 and peptide 3. In the presence of various endocytosis inhibitors (amiloride, a macropinocytosis inhibitor[37]; nystatin, a caveolae-mediated endocytosis inhibitor[38]; and sucrose, a clathrin-mediated endocytosis inhibitor[39]), the migration levels of R9 and 3 into the HeLa cells were compared (Fig. S10). […] Then, we investigated the intracellular localization and dynamic behavior of R9 and 3 using fluorescence microscopy. The cells’ late endosomes/lysosomes were stained with LysoTracker Red (red), and their nuclei were stained with Hoechst 33342 (blue). […] Therefore, we investigated the intracellular uptake of peptide 3 at low temperature using flow cytometry and fluorescence microscopy. […]
The cells were seeded onto 6-well culture plates (400,000 cells/well) and incubated overnight in 2 mL of DMEM containing 10% FBS. […] Then, fluorescence intensity in the cells was measured as above. […] Statistical differences were analyzed by Student’s t-test. […]
Figure S11. Fluorescence microscopy images of HeLa cells that had been treated with […]

HeLa cells [4] = experiment: Intracellular localization by fluorescence microscopy (endosomal escape); type: cell-based; conditions: 10 μM peptide, 37 °C, 15 min–2 hr, LysoTracker Red and Hoechst 33342 staining
Protocol: The results of the cytotoxicity analysis, in which HeLa cells were treated with peptides 1–5 for 24 hr at concentrations of 1, 4, and 8 μM, are shown in Fig. S9. […] Next, we investigated the intracellular uptake pathways of R9 and peptide 3. In the presence of various endocytosis inhibitors (amiloride, a macropinocytosis inhibitor[37]; nystatin, a caveolae-mediated endocytosis inhibitor[38]; and sucrose, a clathrin-mediated endocytosis inhibitor[39]), the migration levels of R9 and 3 into the HeLa cells were compared (Fig. S10). […] Then, we investigated the intracellular localization and dynamic behavior of R9 and 3 using fluorescence microscopy. The cells’ late endosomes/lysosomes were stained with LysoTracker Red (red), and their nuclei were stained with Hoechst 33342 (blue). […] As a general approach, peptides that can change their helical structures in accordance with pH fluctuations are often used to promote escape from endosomes. […] Therefore, we investigated the intracellular uptake of peptide 3 at low temperature using flow cytometry and fluorescence microscopy. […]
Figure S11. Fluorescence microscopy images of HeLa cells that had been treated with 10 µM of peptides [(a) peptide 3, (b) R9, (c) peptide 2] for 15 min-2 hr at 37 °C. […]
Figure S12. Fluorescence microscopy images of HeLa cells that had been treated with 10 µM of peptides [(a) R9, (b) peptide 3, (c) peptide 2] for 2 hr at 37 °C. […]

| Molecule | cell-penetrating ability and stability after pre-incubation in medium (in words) [1] | stability in culture medium / cellular environment, as concluded from the uptake time course (HeLa cells [2]) | effect of endocytosis inhibitors on uptake (in words) (HeLa cells [3]) | endosomal escape / localization (in words) (HeLa cells [4]) | cellular uptake over incubation time (in words) (HeLa cells [2]; medium containing FBS, flow cytometry, three independent cultures) |
| --- | --- | --- | --- | --- | --- |
| N=C(N)NCCC[C@H](NC(=O)CCNC(=O)c1ccc2c(c1)C(=O)OC21c2ccc(O)cc2Oc2cc(O)ccc21)C(=O)N[C@@H](CCCNC(=N)N)C(=O)N1CCC[C@H]1C(=O)N[C@@H](CCCNC(=N)N)C(=O)N[C@@H](CCCNC(=N)N)C(=O)N1CCC[C@H]1C(=O)N[C@@H](CCCNC(=N)N)C(=O)N[C@@H](CCCNC(=N)N)C(=O)N1CCC[C@H]1C(=O)NCC(=O)NCC(=O)NCC(N)=O [peptide 1, FAM-β-Ala-(L-Arg-L-Arg-L-Pro)3-(Gly)3-NH2] (HELM PEPTIDE1{[O=C1OC2(c3ccc(O)cc3Oc3cc(O)ccc32)c2ccc(C(=O)[*:2])cc21].[bAla].R.R.P.R.R.P.R.R.P.G.G.G.[am]}$$$$V2.0) | sharply fell as the pre-incubation time increased | – | – | – | – |
| N=C(N)NCCC[C@H](NC(=O)CCNC(=O)c1ccc2c(c1)C(=O)OC21c2ccc(O)cc2Oc2cc(O)ccc21)C(=O)N[C@@H](CCCNC(=N)N)C(=O)N1C[C@@H](N)C[C@H]1C(=O)N[C@@H](CCCNC(=N)N)C(=O)N[C@@H](CCCNC(=N)N)C(=O)N1C[C@@H](N)C[C@H]1C(=O)N[C@@H](CCCNC(=N)N)C(=O)N[C@@H](CCCNC(=N)N)C(=O)N1C[C@@H](N)C[C@H]1C(=O)NCC(=O)NCC(=O)NCC(N)=O [peptide 2, FAM-β-Ala-(L-Arg-L-Arg-L-Pro^NH2)3-(Gly)3-NH2] ({5FAM-βAla}-RR[Pro(4S-NH2)]RR[Pro(4S-NH2)]RR[Pro(4S-NH2)]GGG-NH2) | more chemically stable than R9 and peptide 1 | – | – | – | – |
| N=C(N)NCCC[C@H](NC(=O)CCNC(=O)c1ccc2c(c1)C(=O)OC21c2ccc(O)cc2Oc2cc(O)ccc21)C(=O)N[C@@H](CCCNC(=N)N)C(=O)N1C[C@@H](NC(=N)N)C[C@H]1C(=O)N[C@@H](CCCNC(=N)N)C(=O)N[C@@H](CCCNC(=N)N)C(=O)N1C[C@@H](NC(=N)N)C[C@H]1C(=O)N[C@@H](CCCNC(=N)N)C(=O)N[C@@H](CCCNC(=N)N)C(=O)N1C[C@@H](NC(=N)N)C[C@H]1C(=O)NCC(=O)NCC(=O)NCC(N)=O [peptide 3, FAM-β-Ala-(L-Arg-L-Arg-L-Pro^Gu)3-(Gly)3-NH2] ({5FAM-βAla}-RR[Pro(cis-4-guanidino)]RR[Pro(cis-4-guanidino)]RR[Pro(cis-4-guanidino)]GGG-NH2) | more chemically stable than R9 and peptide 1; also recorded: remained stable in the medium containing FBS | more stable than R9 | – | – | – |
| N=C(N)NCCC[C@H](NC(=O)CCNC(=O)c1ccc2c(c1)C(=O)OC21c2ccc(O)cc2Oc2cc(O)ccc21)C(=O)N[C@@H](CCCNC(=N)N)C(=O)N1C[C@@H](NC(=N)N)C[C@H]1C(=O)N1C[C@@H](NC(=N)N)C[C@H]1C(=O)N[C@@H](CCCNC(=N)N)C(=O)N[C@@H](CCCNC(=N)N)C(=O)N[C@@H](CCCNC(=N)N)C(=O)N[C@@H](CCCNC(=N)N)C(=O)N1C[C@@H](NC(=N)N)C[C@H]1C(=O)NCC(=O)NCC(=O)NCC(N)=O [peptide 4, FAM-β-Ala-(L-Arg)2-(L-Pro^Gu)2-(L-Arg)4-L-Pro^Gu-(Gly)3-NH2] ({5FAM-βAla}-RR[Pro(cis-4-guanidino)][Pro(cis-4-guanidino)]RRRR[Pro(cis-4-guanidino)]GGG-NH2) | – | more stable than R9 | – | – | – |
| nona-arginine [R9, reference compound] | sharply fell as the pre-incubation time increased | unstable | decreased by treatment with amiloride or sucrose | co-localized with the late endosomes/lysosomes | gradually decreased after 1-hr incubation |
